Test results published in patent US7416893B2, “Methods for diagnosing drug-resistant cancer cells or for identifying chemotherapeutic agents by measuring anomalous intracellular ion and/or second messenger dynamics” (Atto Bioscience, priority 2002, dated 2008).
Marks after values point to notes of the source that are not given here.

Key:
MCF-7 wt cells = experiment: Single-cell fura-2 [Ca2+]i imaging, MCF-7 wt drug-sensitive cells; type: cell-based, human; conditions: for Fold [Ca2+]i increase evoked by agonist: mean ± S.E.M.
Excerpt: More specifically, human breast cancer cell (“bc”) lines were obtained from the following sources: wild type (“wt”), estrogen receptor-positive MCF-7 cells were obtained from three different sources: American Type Culture Collection (ATCC, Manassas, Va.), the Lombardi Cancer Center, Georgetown University (Washington, D.C.) and the National Cancer Institute, NIH (Bethesda, Md.) and will be referred to as “wt”, DS MCF-7 throughout the paper. […] Five DR, MCF-7-derived clonal cell lines were used in this study.
(§6) Cells, grown on 25 mm round, 1 mm-thick glass coverslips were loaded with cell-permeable fura-2 AM (5 uM; Molecular Probes, Eugene, Oreg.) at 37° C. in growth medium for 30-60 min. […] Cells were then thoroughly washed with buffer H/H (Ham's F-10 nutrient mixture supplemented with 20 mM Na-HEPES, pH 7.4) and let sit for 10 min at room temperature to allow complete fura-2 AM de-esterification. […] For each coverslip, 10-99 cells were simultaneously imaged in a given microscopic field and [Ca^2+]1 was recorded from each individual cell in resting and stimulated conditions. Single Ca^2+ profiles were averaged to yield [Ca^2+]1 population means (±S.E.M.) that were plotted versus time.
(§7) Cells were grown as monolayers on glass supports and labeled with the cell-permeable fluorescent dye, Fura-2 (Molecular Probes, Inc.).
(§8) Basal [Ca^2+]1 levels and responses to ATP (50-100 uM), UTP (50-100 uM), BK (10 uM), THR (5 uM), or TG (1 uM) were studied in single cells. […] Ca^2+ responses were compared between pairs of DS and DR clones tested in parallel (MCF-7/ADR cells were compared to their parental wt, DS line obtained from Georgetown University; MCF-7/Ad-Vp cells were compared to the NIH wt, DS line; other DR clones were compared mainly with wt, DS MCF-7 cells from ATCC; C6 clones resistant to doxorubicin were compared to their wild type parental line.
(§9) Cells were labeled with Fura-2 and imaged. After 30-60 sec., the agonists were applied and calcium responses were recorded in single cells. The fold increase in [Ca^2+]1 were calculated and the average values from all the experiments were used in this table.
(§10) Cells were loaded with Fura-2 and imaged in the absence or presence of EGTA, which is a calcium chelator. Cells were challenged with ATP and Ca responses were recorded. The magnitude and decay t1/2 of the responses were calculated and the respective mean of all the experiments was compared.

MDA-MB-231 cells = experiment: Single-cell fura-2 [Ca2+]i imaging, MDA-MB-231 wt cells; type: cell-based, human; conditions: for Fold [Ca2+]i increase evoked by agonist: mean ± S.E.M.
Excerpt: (§1) More specifically, human breast cancer cell (“bc”) lines were obtained from the following sources: wild type (“wt”), estrogen receptor-positive MCF-7 cells were obtained from three different sources: American Type Culture Collection (ATCC, Manassas, Va.), the Lombardi Cancer Center, Georgetown University (Washington, D.C.) and the National Cancer Institute, NIH (Bethesda, Md.) and will be referred to as “wt”, DS MCF-7 throughout the paper. Wild type, estrogen receptor-negative MDA-MB-231 cells were obtained from the Lombardi Cancer Center, Georgetown University. Five DR, MCF-7-derived clonal cell lines were used in this study. MCF-7/ADR (selected by exposure and resistance to adriamycin, a DNA intercalating agent and DNA topoisomerase II inhibitor; (Vickers, P. J. et al. Mol. Endocrinol. 2:886-892, 1988) were from the Lombardi Cancer Center, Georgetown University; MCF-7/C4 (selected, after mutagenesis, for resistance to camptothecin, a DNA topoisomerase I inhibitor) were obtained from Dr. Y. Pommier (NCI, NIH, Bethesda, Md.) (Fujimori, A. et al. Mol. Pharmacol. 50:1472-1478, 1996); MCF-7/VP cells (selected by exposure and resistance to VP-16 etoposide, a DNA topoisomerase II inhibitor; Schneider, E. et al. Cancer Res. 54:152-158, 1994) were obtained from Dr. E. Schneider, Wadsworth Center, New York State Dept. of Health, Albany, N.Y.; MCF-7/Melph cells (selected by exposure and resistance to melphalan, a DNA alkylating agent; Moscow, J A et al. Br. J. Cancer 68:732-737, 1993) were obtained from Dr. J. Moscow, University of Kentucky, Lexington, Ky.
(§2) For data mentioned below, [Ca^2+]1 was measured by single-cell fura-2 excitation ratio imaging as previously described (DeBernardi, M. A. et al. Mol Pharmacol 43:451-58, 1993). Cells, grown on 25 mm round, 1 mm-thick glass coverslips were loaded with cell-permeable fura-2 AM (5 uM; Molecular Probes, Eugene, Oreg.) at 37° C. in growth medium for 30-60 min. MCF-7/ADR, MCF-7/Ad-Vp, and C6-B and E cells were difficult to load with fura-2 AM, likely reflecting a high degree of dye extrusion (Homolya, L. et al. J Biol. Chem. 268:21493-96, 1993). […] Cells were then thoroughly washed with buffer H/H (Ham's F-10 nutrient mixture supplemented with 20 mM Na-HEPES, pH 7.4) and let sit for 10 min at room temperature to allow complete fura-2 AM de-esterification. Cells were imaged at room temperature in H/H buffer using an Attofluor RatioVision Digital Fluorescence Microscopy System (Atto Bioscience, Rockville, Md.) equipped with a Zeiss Axiovert 135 microscope and a F-Fluar 40×, 1.3 na, oil-immersion objective. Fura-2 was excited at 334 and 380 nm with the emission monitored at >510 nm; the 334/380 nm excitation ratio increases as a function of the [Ca^2+]1. Calibration was done in vitro with 10 uM fura-2 pentapotassium salt in the presence of 1 mM CaCl2 or 1 mM EGTA and the 334/380 nm excitation ratio was converted to [Ca^2+]1 nM values (Grynkiewicz et al J Biol Chem 260:3440-3450, 1985). For each coverslip, 10-99 cells were simultaneously imaged in a given microscopic field and [Ca^2+]1 was recorded from each individual cell in resting and stimulated conditions. Single Ca^2+ profiles were averaged to yield [Ca^2+]1 population means (±S.E.M.) that were plotted versus time. […]
(§3) Single cell Ca^2+ dynamics were monitored by single cell fluorescence digital imaging according to the method previously described by DeBernardi, M. A. et al. Mol Phamacol 43: 451-458 (1993). […]

MCF-7/ADR cells = experiment: Single-cell fura-2 [Ca2+]i imaging, MCF-7/ADR drug-resistant cells; type: cell-based, human; conditions: for Fold [Ca2+]i increase evoked by agonist: mean ± S.E.M.
Experimental: as §6, §7, §8, §9, §10
(§11) DR and DS cells were then exposed to the modulators for 2 or 24 hr and challenged with ATP.

MCF-7/AdVp cells = experiment: Single-cell fura-2 [Ca2+]i imaging, MCF-7/Ad-Vp drug-resistant cells; type: cell-based, human; conditions: mean ± S.E.M.
Experimental: as §6, §7, §8, §9

MCF-7/VP cells = experiment: Single-cell fura-2 [Ca2+]i imaging, MCF-7/VP drug-resistant cells; type: cell-based, human; conditions: mean ± S.E.M.
Experimental: as §6, §7, §8, §9

MCF-7/C4 cells = experiment: Single-cell fura-2 [Ca2+]i imaging, MCF-7/C4 drug-resistant cells; type: cell-based, human; conditions: for Fold [Ca2+]i increase evoked by agonist: mean ± S.E.M.
Excerpt: as §1, §2, §3

MCF-7/Melph cells = experiment: Single-cell fura-2 [Ca2+]i imaging, MCF-7/Melph drug-resistant cells; type: cell-based, human; conditions: mean ± S.E.M.
[1] = tested on: human breast cancer cells (DS and DR); experiment: Single-cell fura-2 [Ca2+]i imaging, DS and DR human breast cancer cells (statements across lines); type: cell-based; conditions: for Effect on decay kinetics of ATP-evoked response: 2 or 24 hr, VER/CSA in wt or MCF-7/ADR, GEN/PRO in wt or MCF-7/VP; for Effect of acute pre-treatment on ATP-induced [Ca2+]i responses: 10 min pre-treatment, VER 25 uM, CSA 10 uM, GEN 100 uM, PRO 2 mM
Experimental: as §6, §7, §8
Human breast cancer cells loaded with Fura-2, were exposed to various agonists and [Ca^2+]1 responses from single cells were recorded.
as §11

[2] = tested on: C6 rat glioblastoma clone A; experiment: Single-cell fura-2 [Ca2+]i imaging, C6 clone A; type: cell-based
Experimental: (§4) C6 rat glioblastoma cell lines: Wild type cells and progressively doxorubicin-resistant clones were obtained from Dr. J. Robert, Institute Bergonie, Bordeaux, France. Clones were selected by exposure to increasing doses of doxorubicin: Clone A, 0.001 μg/ml; Clone B, 0.1 μg/ml, and Clone E, 0.5 μg/ml.
(§5) For data mentioned below, [Ca^2+]1 was measured by single-cell fura-2 excitation ratio imaging as previously described (DeBernardi, M. A. et al. Mol Pharmacol 43:451-58, 1993). Cells, grown on 25 mm round, 1 mm-thick glass coverslips were loaded with cell-permeable fura-2 AM (5 uM; Molecular Probes, Eugene, Oreg.) at 37° C. in growth medium for 30-60 min. […] Cells were imaged at room temperature in H/H buffer using an Attofluor RatioVision Digital Fluorescence Microscopy System (Atto Bioscience, Rockville, Md.) equipped with a Zeiss Axiovert 135 microscope and a F-Fluar 40×, 1.3 na, oil-immersion objective. Fura-2 was excited at 334 and 380 nm with the emission monitored at >510 nm; the 334/380 nm excitation ratio increases as a function of the [Ca^2+]1. […] For each coverslip, 10-99 cells were simultaneously imaged in a given microscopic field and [Ca^2+]1 was recorded from each individual cell in resting and stimulated conditions. […]

[3] = tested on: C6 rat glioblastoma clone B; experiment: Single-cell fura-2 [Ca2+]i imaging, C6 clone B; type: cell-based
Experimental: as §4, §5

[4] = tested on: C6 rat glioblastoma clone E; experiment: Single-cell fura-2 [Ca2+]i imaging, C6 clone E; type: cell-based
Experimental: as §4, §5

C6 DR clones A, B and E = experiment: Single-cell fura-2 [Ca2+]i imaging, all C6 DR clones; type: cell-based, rat; conditions: all the clones
Experimental: as §4, §5

[5] = tested on: C6 rat astrocytoma clone A; conditions: cited from earlier work
[6] = tested on: C6 rat astrocytoma clone B; conditions: cited from earlier work
[7] = tested on: C6 rat astrocytoma clone E; conditions: cited from earlier work

Nc1ncnc2c1ncn2[C@@H]1O[C@H](COP(=O)(O)OP(=O)(O)OP(=O)(O)O)[C@@H](O)[C@H]1O [ATP]
ATP-evoked [Ca2+]i, fold increase (MCF-7 wt cells; EGTA-containing Buffer): 6.2 ± 2.1 fold
ATP-evoked [Ca2+]i, fold increase (MCF-7 wt cells; Standard Buffer): 8.1 ± 2.4^b fold
Fold [Ca2+]i increase evoked by agonist (MCF-7 wt cells): 7.9 ± 1.8^a (n = 67) fold
ATP-evoked [Ca2+]i, fold increase (MDA-MB-231 cells; EGTA-containing Buffer): 26.0 ± 8.1 fold
ATP-evoked [Ca2+]i, fold increase (MDA-MB-231 cells; Standard Buffer): 16.5 ± 4.8 fold
Fold [Ca2+]i increase evoked by agonist (MDA-MB-231 cells): 16.5 ± 4.8 fold
ATP-evoked [Ca2+]i, fold increase (MCF-7/ADR cells; EGTA-containing Buffer): 2.4 ± 0.3 fold
ATP-evoked [Ca2+]i, fold increase (MCF-7/ADR cells; Standard Buffer): 3.7 ± 0.7 fold
Fold [Ca2+]i increase evoked by agonist (MCF-7/ADR cells): 2.9 ± 0.7 (n = 25) fold
Fold [Ca2+]i increase evoked by agonist (MCF-7/AdVp cells): 4.5 ± 1.2 (n = 12) fold
Fold [Ca2+]i increase evoked by agonist (MCF-7/VP cells): 4.4 ± 1.2 (n = 11) fold
ATP-evoked [Ca2+]i, fold increase (MCF-7/C4 cells; EGTA-containing Buffer): 4.9 ± 0.4 fold
ATP-evoked [Ca2+]i, fold increase (MCF-7/C4 cells; Standard Buffer): 5.8 ± 0.9 fold
Fold [Ca2+]i increase evoked by agonist (MCF-7/C4 cells): 5.9 ± 0.8 (n = 12) fold
Fold [Ca2+]i increase evoked by agonist (MCF-7/Melph cells): 16.0 ± 6.1 fold
ATP-increased [Ca2+]i decay kinetics faster in absence than in presence of extracellular Ca2+ ([1]; MCF-7/ADR and MCF-7/C4 cells, EGTA vs standard buffer): ≥ 60%
[Ca2+]i increase when applied following TG ([1]; MCF-7/C4, MCF-7/VP and MCF-7/Ad-Vp cells): modest and transient
ATP-increased [Ca2+]i decay kinetics faster in Ca2+-free conditions ([1]; MCF-7 and MDA-MB-231 wt cells, EGTA vs standard buffer): ≤ 40%
Ca2+ response evoked when applied following TG ([1]; MCF-7 wt and MCF-7/ADR cells): failed to evoke

O=c1c(-c2ccc(O)cc2)coc2cc(O)cc(O)c12 [GEN, genistein]
Effect on decay kinetics of ATP-evoked response [1]: not affected
Effect of acute pre-treatment on ATP-induced [Ca2+]i responses [1]: did not affect

CCCN(CCC)S(=O)(=O)c1ccc(C(=O)O)cc1 [PRO, probenecid]
Effect on decay kinetics of ATP-evoked response [1]: not affected
Effect of acute pre-treatment on ATP-induced [Ca2+]i responses [1]: did not affect

C/C=C(/C)C(=O)O[C@H]1C(C)=C2[C@H]([C@@H]1OC(=O)CCCCCCC)[C@@](C)(OC(C)=O)C[C@H](OC(=O)CCC)[C@@]1(O)[C@H]2OC(=O)[C@@]1(C)O [TG, thapsigargin]
Fold [Ca2+]i increase evoked by agonist (MCF-7 wt cells): 2.8 ± 0.5 fold
Fold [Ca2+]i increase evoked by agonist (MDA-MB-231 cells): 3.5 ± 0.9 (n = 3) fold
Fold [Ca2+]i increase evoked by agonist (MCF-7/ADR cells): 2.7 ± 0.7 fold
Fold [Ca2+]i increase evoked by agonist (MCF-7/AdVp cells): 2.4 ± 0.7 fold
Fold [Ca2+]i increase evoked by agonist (MCF-7/VP cells): 1.5 ± 0.1 (n = 6) fold
Fold [Ca2+]i increase evoked by agonist (MCF-7/C4 cells): 3.4 ± 0.8 (n = 7) fold
[Ca2+]i increase when applied after ATP ([1]; all DR clones and MDA-MB-231 wt, except MCF-7 wt and MCF-7/VP): able to increase
Fold increase in [Ca2+]i ([1]; all clones, applied as the first drug): ~3 fold
Induced [Ca2+]i increase compared with C6 parental cells [2]: greater
Induced [Ca2+]i increase compared with C6 parental cells [3]: much reduced response
Induced [Ca2+]i increase compared with C6 parental cells [4]: much reduced response
[Ca2+]i decay kinetics after stimulation, compared with wild type cells (C6 DR clones A, B and E): comparable or faster

O=c1ccn([C@@H]2O[C@H](COP(=O)(O)OP(=O)(O)OP(=O)(O)O)[C@@H](O)[C@H]2O)c(=O)[nH]1 [UTP]
Fold [Ca2+]i increase evoked by agonist (MCF-7 wt cells): 6.0 ± 1.3 fold
Fold [Ca2+]i increase evoked by agonist (MCF-7/ADR cells): 2.2 ± 0.3 fold
Fold [Ca2+]i increase evoked by agonist (MCF-7/AdVp cells): 3.7 ± 0.8 fold
Fold [Ca2+]i increase evoked by agonist (MCF-7/VP cells): 5.2 ± 1.9 fold
Fold [Ca2+]i increase evoked by agonist (MCF-7/Melph cells): 3.7 ± 0.3 fold

COc1cccc2c1C(=O)c1c(O)c3c(c(O)c1C2=O)C[C@@](O)(C(=O)CO)C[C@@H]3O[C@H]1C[C@H](N)[C@H](O)[C@H](C)O1 [adriamycin]
Fold resistance (dose to kill 50% of DR cells vs wt, DS cells) [5]: 7 fold
Fold resistance (dose to kill 50% of DR cells vs wt, DS cells) [6]: 33 fold
Fold resistance (dose to kill 50% of DR cells vs wt, DS cells) [7]: 400 fold

α-thrombin
Fold [Ca2+]i increase evoked by agonist (MCF-7 wt cells): 2.8 ± 0.1 (n = 3) fold
Fold [Ca2+]i increase evoked by agonist (MDA-MB-231 cells): 13.5 ± 5.1 fold
Fold [Ca2+]i increase evoked by agonist (MCF-7/ADR cells): 2.8 ± 1.1 (n = 3) fold
Fold [Ca2+]i increase evoked by agonist (MCF-7/C4 cells): 3.3 ± 0.3 (n = 3) fold
